The text below walks through data of patent US10292968B2, “Substituted heterocycles as bromodomain inhibitors” (Zenith Epigenetics Ltd., priority 2014, dated 2019).

Test [1] concerns the target T1, Brd4 bromodomain 1 (BRD4(1)) (Homo sapiens, UniProt O60885).
T1 construct: N-terminally His-tagged bromodomains (BRD4(1) at 20 nM and BRD4(2) at 100 nM); made in house; host or cells: E. coli BL21(DE3)
The test can be described thus: AlphaScreen inhibition of tetra-acetylated histone H4 binding to BRD4(1). The following applies: BRD4(1) at 20 nM, tetra-acetylated histone H4 peptide, 30 min incubation; for IC50: read-out: Alpha Screen BRD4(1). The protocol: (§1) Proteins were cloned and overexpressed with a N-terminal 6×His tag, then purified by nickel affinity followed by size exclusion chromatography. Briefly, E. coli BL21(DE3) cells were transformed with a recombinant expression vector encoding N-terminally Nickel affinity tagged bromodomains from Brd2, Brd3, Brd4. Cell cultures were incubated at 37° C. with shaking to the appropriate density and induced overnight with IPTG. The supernatant of lysed cells was loaded onto Ni-IDA column for purification. Eluted protein was pooled, concentrated and further purified by size exclusion chromatography. Fractions representing monomeric protein were pooled, concentrated, aliquoted, and frozen at −80° C. for use in subsequent experiments.
(§2) Binding of tetra-acetylated histone H4 peptide (Millipore) and BET bromodomains was confirmed by Amplified Luminescent Proximity Homogenous Assay (AlphaScreen). N-terminally His-tagged bromodomains (BRD4(1) at 20 nM and BRD4(2) at 100 nM) and biotinylated tetra-acetylated histone H4 (10-25 nM) were incubated in the presence of nickel chelate acceptor beads and streptavidin donor beads (PerkinAlmer, 6760000K) added to a final concentration of 2 μg/ml under green light in a white 96 well microtiter plate (Greiner). For inhibition assays, serially diluted compounds were added to the reaction mixtures in a 0.1% final concentrations of DMSO. Final buffer concentrations were 50 mM HEPES, 100 mM NaCl and 0.1% BSA buffer, pH 7.4 and optimized to 30 min incubation time. Assay plates were read at 570 nm on a Synergy H4 Plate Reader (Biotek). IC50 values were determined from a dose response curve.
(In Alpha technology, singlet oxygen from a donor bead excites a nearby acceptor bead.)

The target of test [2] is T2, Brd 4 bromodomain 2 (BRD4(2)) (Homo sapiens, UniProt O60885).
T2 construct: N-terminally His-tagged bromodomains (BRD4(1) at 20 nM and BRD4(2) at 100 nM); made in house; host or cells: E. coli BL21(DE3)
Put plainly: AlphaScreen inhibition of tetra-acetylated histone H4 binding to BRD4(2). As to conditions: BRD4(2) at 100 nM, tetra-acetylated histone H4 peptide, 30 min incubation; for IC50: read-out: Alpha Screen BRD4(2). As for the experimental part: as §1, §2

A further test concerns cMYC. Put plainly: Inhibition of cMYC expression (mRNA, real-time PCR) in MV4-11 cells. The following applies: Human AML MV4-11 cells, 3 h; for IC50: read-out: c-myc activity. Type of test: cell-based. As for the experimental part:
MV4-11 cells (CRL-9591) were plated at a density of 2.5×10^4 cells per well in 96 well U-bottom plates and treated with increasing concentrations of test compound or DMSO (0.1%) in IMDM media containing 10% FBS and penicillin/streptomycin, and incubated for 3 h at 37° C. Triplicate wells were used for each concentration. Cells were pelleted by centrifugation and harvested using the mRNA Catcher PLUS kit according to manufacturer's instructions. The eluted mRNA isolated was then used in a one-step quantitative real-time PCR reaction, using components of the RNA UltraSense™ One-Step Kit (Life Technologies) together with Applied Biosystems TaqMan® primer-probes for cMYC and Cyclophilin. Real-time PCR plates were run on a ViiA™7 real time PCR machine (Applied Biosystems), data was analyzed, normalizing the Ct values for cMYC to an internal control, prior to determining the fold expression of each sample, relative to the control.
In general terms: Quantitative PCR measures a nucleic acid by following its amplification.

Another test relates to MV4-11 cells. The test can be described thus: Inhibition of cell proliferation in MV4-11 cells (Cell Titer Aqueous One). As to conditions: Human AML MV-4-11 cells, 72 h. It is filed as cell-based. The protocol:
MV4-11 cells (CRL-9591) were plated at a density of 5×10^4 cells per well in 96 well flat bottom plates and treated with increasing concentrations of test compound or DMSO (0.1%) in IMDM media containing 10% FBS and penicillin/streptomycin. Triplicate wells were used for each concentration and a well containing only media was used as a control. Plates were incubated at 37° C., 5% CO2 for 72 h before adding 20 μL of the Cell Titer Aqueous One Solution (Promega) to each well and incubated at 37° C., 5% CO2 for an additional 3-4 h. The absorbance was read at 490 nm in a spectrophotometer and the percentage of cell titer relative to DMSO-treated cells was calculated after correcting for background by subtracting the blank well's signal. IC50 values were calculated using the GraphPad Prism software.

Molecules are shown by their SMILES. Where a name gives a salt, the structure may show the parent alone. A value given as a limit tells only on which side of the number the result lay.

With `COC(=O)c1ccc(C)c(-c2[nH]c(-c3ccccc3)nc2-c2n[nH]c(=O)n2C2CC2)c1` [Example 2, methyl 3-(4-(4-cyclopropyl-5-oxo-4,5-dihydro-1H-1,2,4-triazol-3-yl)-2-phenyl-1H-imidazol-5-yl)-4-methyl benzoate hydrochloride], the IC50 in test [1] and in test [2] was 3 to 30 µM in each case. Also, the c-myc activity result in the test on cMYC is “Not Active”. In the test with MV4-11 cells, the “Cell Proliferation activity” value is “Not Active”.
Turning to `CNC(=O)c1cccc(-c2[nH]c(-c3ccccc3)nc2-c2n[nH]c(=O)n2C2CC2)c1` [Example 3, 3-(4-(4-cyclopropyl-5-oxo-4,5-dihydro-1H-1,2,4-triazol-3-yl)-2-phenyl-1H-imidazol-5-yl)-N-methyl benzamide hydrochloride], the IC50 in test [1] and in test [2] was 3 to 30 µM in each case.
Consider `NC(=O)c1cccc(-c2[nH]c(-c3ccccc3)nc2-c2n[nH]c(=O)n2C2CC2)c1` [Example 4, 3-(4-(4-cyclopropyl-5-oxo-4,5-dihydro-1H-1,2,4-triazol-3-yl)-2-phenyl-1H-imidazol-5-yl) benzamide hydrochloride], for which the IC50 (in test [1]; with cMYC; in the test on MV4-11 cells (MV4-11)) was 3 to 30 µM in each case. Moreover, the “Alpha Screen BRD4(2)” value in test [2] is listed as “Not Active”.
On to `O=C1CCc2ccc(-c3[nH]c(-c4ccccc4)nc3-c3n[nH]c(=O)n3C3CC3)cc21` [Example 5, 4-cyclopropyl-3-(5-(3-oxo-2,3-dihydro-1H-inden-5-yl)-2-phenyl-1H-imidazol-4-yl)-1H-1,2,4-triazol-5(4H)-one hydrochloride], for which, in test [1], the “Alpha Screen BRD4(1)” value is reported as “Not Active”. Moreover, in test [2], the “Alpha Screen BRD4(2)” value is “Not Active”.
Take `CC(=O)c1ccc(C)c(-c2[nH]c(-c3ccccc3)nc2-c2n[nH]c(=O)n2C2CC2)c1` [Example 11, 3-(5-(5-acetyl-2-methylphenyl)-2-phenyl-1H-imidazol-4-yl)-4-cyclopropyl-1H-1,2,4-triazol-5(4H)-one hydrochloride]: in test [1], the IC50 is 3 to 30 µM. Also, in test [2], the “Alpha Screen BRD4(2)” value is listed as “Not Active”.
Regarding `CC(=O)c1cncc(-c2[nH]c(-c3ccccc3)nc2-c2n[nH]c(=O)n2C2CC2)c1` [Example 12, 3-(5-(5-acetylpyridin-3-yl)-2-phenyl-1H-imidazol-4-yl)-4-cyclopropyl-1H-1,2,4-triazol-5(4H)-one formate], the IC50 in test [1] was 3 to 30 µM; in test [2] it was 0.3 to 3 µM.
The matching figures for `Cc1nn(C)c2ccc(-c3[nH]c(-c4ccccc4)nc3-c3n[nH]c(=O)n3C3CC3)cc12` [Example 15, 4-cyclopropyl-3-(5-(1,3-dimethyl-1H-indazol-5-yl)-2-phenyl-1H-imidazol-4-yl)-1H-1,2,4-triazol-5(4H)-one hydrochloride]: 0.3 to 3 µM and 3 to 30 µM.
Regarding `Cc1noc2ccc(-c3[nH]c(-c4ccccc4)nc3-c3n[nH]c(=O)n3C3CC3)cc12` [Example 16, 4-cyclopropyl-3-(5-(3-methylbenzo[d]isoxazol-5-yl)-2-phenyl-1H-imidazol-4-yl)-1H-1,2,4-triazol-5(4H)-one], the IC50 in test [1] was no more than 0.3 µM; in test [2], 0.3 to 3 µM.
In the case of `Cn1ncc2ccc(-c3[nH]c(-c4ccccc4)nc3-c3n[nH]c(=O)n3CC3CC3)cc21` [Example 17, 4-(cyclopropylmethyl)-3-(5-(1-methyl-1H-indazol-6-yl)-2-phenyl-1H-imidazol-4-yl)-1H-1,2,4-triazol-5(4H)-one], in test [1], the “Alpha Screen BRD4(1)” value is listed as “Not Active”. Further, in test [2], the “Alpha Screen BRD4(2)” value is “Not Active”.
`CC(C)Cn1c(-c2nc(-c3ccccc3)[nH]c2-c2ccc3cnn(C)c3c2)n[nH]c1=O` [Example 18, 4-isobutyl-3-(5-(1-methyl-1H-indazol-6-yl)-2-phenyl-1H-imidazol-4-yl)-1H-1,2,4-triazol-5(4H)-one]: the IC50 is 0.3 to 3 µM in test [1] and 3 to 30 µM in test [2]. Moreover, the c-myc activity entry in the test on cMYC was “Not Active”.
On to `Cn1ncc2ccc(-c3[nH]c(-c4ccccc4)nc3-c3n[nH]c(=O)n3C3CCC3)cc21` [Example 19, 4-cyclobutyl-3-(5-(1-methyl-1H-indazol-6-yl)-2-phenyl-1H-imidazol-4-yl)-1H-1,2,4-triazol-5(4H)-one], for which the IC50 in test [1] lay in the range of 0.3 to 3 µM; in test [2], 3 to 30 µM; in the test with cMYC, 3 to 30 µM.
With `Cn1ncc2ccc(-c3[nH]c(-c4ccccc4)nc3-c3n[nH]c(=O)n3CC(C)(C)C)cc21` [Example 20, 3-(5-(1-methyl-1H-indazol-6-yl)-2-phenyl-1H-imidazol-4-yl)-4-neopentyl-1H-1,2,4-triazol-5(4H)-one], the IC50 in test [1] lay in the range of 0.3 to 3 µM; in test [2], 3 to 30 µM.
As for `Cn1ncc2ccc(-c3[nH]c(-c4ccccc4)nc3-c3n[nH]c(=O)n3C3CCCC3)cc21` [Example 21, 4-cyclopentyl-3-(5-(1-methyl-1H-indazol-6-yl)-2-phenyl-1H-imidazol-4-yl)-1H-1,2,4-triazol-5(4H)-one], the IC50 in test [1] fell in the range of 3 to 30 µM. Also, in test [2], the “Alpha Screen BRD4(2)” value was “Not Active”.
In the case of `CC(C)n1c(-c2nc(-c3ccccc3)[nH]c2-c2ccc3cnn(C)c3c2)n[nH]c1=O` [Example 22, 4-isopropyl-3-(5-(1-methyl-1H-indazol-6-yl)-2-phenyl-1H-imidazol-4-yl)-1H-1,2,4-triazol-5(4H)-one], the IC50 in test [1] and in test [2] was 3 to 30 µM each time.
In the case of `Cn1ncc2ccc(-c3[nH]c(-c4ccncc4)nc3-c3n[nH]c(=O)n3C3CC3)cc21` [Example 23, 4-cyclopropyl-3-(5-(1-methyl-1H-indazol-6-yl)-2-(pyridin-4-yl)-1H-imidazol-4-yl)-1H-1,2,4-triazol-5(4H)-one dihydrochloride], the results for the IC50 in test [1] and in test [2] were no more than 0.3 µM and 3 to 30 µM, respectively.
As to `Cn1ncc2ccc(-c3[nH]c(-c4cccnc4)nc3-c3n[nH]c(=O)n3C3CC3)cc21` [Example 24, 4-cyclopropyl-3-(5-(1-methyl-1H-indazol-6-yl)-2-(pyridin-3-yl)-1H-imidazol-4-yl)-1H-1,2,4-triazol-5(4H)-one dihydrochloride], the IC50 in test [1] and in test [2] was 3 to 30 µM throughout.
In the case of `Cn1cc(-c2nc(-c3n[nH]c(=O)n3C3CC3)c(-c3ccc4cnn(C)c4c3)[nH]2)cn1` [Example 25, 4-cyclopropyl-3-(5-(1-methyl-1H-indazol-6-yl)-2-(1-methyl-1H-pyrazol-4-yl)-1H-imidazol-4-yl)-1H-1,2,4-triazol-5(4H)-one hydrochloride], the figures for the IC50 in test [1] and in test [2] were 0.3 to 3 µM and 3 to 30 µM, respectively.
In the case of `Cn1ncc2ccc(-c3[nH]c(-c4cn[nH]c4)nc3-c3n[nH]c(=O)n3C3CC3)cc21` [Example 26, 4-cyclopropyl-3-(5-(1-methyl-1H-indazol-6-yl)-2-(1H-pyrazol-4-yl)-1H-imidazol-4-yl)-1H-1,2,4-triazol-5(4H)-one hydrochloride], the IC50 in test [1] and in test [2] was 3 to 30 µM in each case.
On to `Cn1nc(-c2nc(-c3ccccc3)[nH]c2-c2ccc3cnn(C)c3c2)n(C2CC2)c1=O` [Example 27, 4-cyclopropyl-1-methyl-3-(5-(1-methyl-1H-indazol-6-yl)-2-phenyl-1H-imidazol-4-yl)-1H-1,2,4-triazol-5(4H)-one hydrochloride], for which, in test [1], the IC50 fell in the range of 3 to 30 µM. Also, the “Alpha Screen BRD4(2)” value in test [2] is on record as “Not Active”.
